Test results: US9107853B2, “Compositions containing phenolic compounds and hydrotropes for cosmetic use” (L'Oreal S.A., priority 2012, dated 2015)

Columns and labels:
Format in all cases: physicochemical
[1] = Solubility in water, with or without hydrotropes, at room temperature
[2] = Solubility in organic solvent PEG-4
Text: (§1) Crystallization or precipitation occurs after mixing the glycol phase and water phase.

[3] = Stability of solutions (pH, dilution in water)
Text: as §1
The solubility of baicalin can be increased by raising the concentration of hydrotropes.

O=C(O)[C@H]1O[C@@H](Oc2cc3oc(-c4ccccc4)cc(=O)c3c(O)c2O)[C@H](O)[C@@H](O)[C@@H]1O [Baicalin]
water solubility [1]: < 0.01%
amount dissolved by PEG-4 [2]: 3%
degradation as a function of pH ([3]; aqueous): degradation happens at pH>5
stability of solution after dilution in water ([3]; hydrotrope solution diluted in water): still stable if diluted in water
stability of solution after dilution in water ([3]; solution in organic solvent such as PEG-4, diluted in water): not stable any more
